How the values were obtained:
IAP = assay: Stool IAP activity in PTU-treated mice given T3 (hyperthyroid); type: in vivo
From the text: In WT mice, IAP (Akp3 isoform) is expressed at postnatal Day 15 (Narisawa et al., Am J Physiol Gastrointest Liver Physiol, 293:G1068, 2007), while IAP-KO mice lack this enzyme for their entire life. However, a variety of pathophysiological conditions can lead to altered IAP expression in adult WT animals, which may affect their intestinal flora. Accordingly, stool samples of hypothyroid and hyperthyroid mice were examined, since IAP is known to be silenced in hypothyroid animals and dramatically over-expressed in hyperthyroid animals (Hodin et al., Surgery, 120:138, 1996; Malo et al., Mol Endocrinol, 18:1941, 2004). For 32 weeks, groups of mice (n=5) were given water containing 0.05% propylthiouracil (PTU) in order to induce hypothyroidism by inhibiting both thyroid hormone biosynthesis and peripheral T4 deiodination (Cooper et al., Biochem Pharmacol, 33:3391, 1984). After 6 weeks of PTU treatment, one group received a daily i.p. injection of T3 (30 μg per 100 gm body weight, hyperthyroid) and the other group received a daily i.p. injection of normal saline (0.9% NaCl, hypothyroid) for 26 weeks (Hodin et al., Surgery, 120:138, 1996).
IAP activity was determined following the protocol as described by Baykov et al. (Anal Biochem, 171:266, 1988). Briefly, individual stool samples were homogenized in water (10 mg/100 μl), centrifuged and supernatant was collected. Then 25 μl of the stool supernatant (or aqueous cIAP solution) were mixed with 175 μl phosphatase assay reagent containing 5 mM of p-nitrophenyl phosphate (pNPP) followed by determining optical density at 405 nm after a specific time period when the samples usually turned yellow due to release of p-nitrophenol. Protein concentrations of stool supernatants were measured using a kit from Bio-Rad Laboratories (Hercules, Calif.). The specific activity of the enzyme, expressed as pmole pNPP hydrolyzed per minute per μg of protein, and CFU per gm of stool +/− SEM were determined and the results are shown in FIG. 3. […]

gut microbiota [1] = assay: Restoration of gut flora after ampicillin treatment with or without cIAP (stool culture in LB media); type: in vivo, mice (C57BL/6)
Description: An experiment was performed in which five mice (C57BL/6) of each test group, approximately 6 weeks old, were treated with 1 mg/ml of the antimicrobial drug ampicillin, in the presence or absence of calf intestinal alkaline phosphatase (cIAP) (New England Biolabs, Ipswich, Mass.). Ampicillin was administered orally with the animal's drinking water at a concentration of 1 mg/ml, and 250 units of cIAP were administered twice daily as oral gavage. Individual stool samples of each group were cultured in LB media each day and analyzed for the presence/absence of the gut flora. The gut flora of mice before receiving the antibiotic was considered as a baseline control for normal gastrointestinal tract flora (present in all samples). […] Both treatment groups received ampicillin for 10 days.

[2] = test system: Gram-negative bacteria (mostly E. coli); assay: Restoration of commensal Gram-negative gut flora in streptomycin-treated WT mice with or without cIAP (MacConkey agar); type: in vivo; conditions: streptomycin 5 mg/ml in drinking water
Description: Accordingly, experiments were performed in which groups of WT mice (n=10) were treated orally with the antibiotic streptomycin in the presence or absence of cIAP. Streptomycin (5 mg/ml) and cIAP (200 U/ml for cIAP^+ Group, n=5) or ‘vehicle for cIAP’ (20 μl/ml ‘vehicle for cIAP’ (50 mM KCl, 10 mM Tris-HCl (pH 8.2), 1 mM MgCl, 0.1 mM ZnCl2, and 50% glycerol) in drinking water for control cIAP^− Group, n=5) were administered in the animals' drinking water and fecal cultures were performed.
Individual stool samples were cultured each day on MacConkey agar media. […] After discontinuation of antibiotic treatment, the time of appearance (Day) of Gram-negative bacteria (mostly E. coli, occasionally P. mirabilis) in stool samples was recorded for each animal. The experiment was repeated six times, which raised the total number of animals in each group to 39 (n=39), however, duration of each experiment varied (7-35 days). Data was compiled from all six experiments and the number of animals with E. coli in each group on a specific day was recorded.

gut microbiota [3] = assay: Restoration of gut flora after streptomycin treatment with or without cIAP (stool culture in LB media); type: in vivo, mice (C57BL/6)
Description: To address the role of intestinal alkaline phosphatase on the gastrointestinal tract flora of mammals, an experiment was performed in which five approximately six week old mice (C57BL/6) of each test group were treated with an antimicrobial drug, streptomycin, in the presence or absence of calf intestinal alkaline phosphatase (cIAP) (Sigma, St. Louis, Mo.). Both streptomycin (5 mg/ml) and cIAP (50 units/ml) were administered orally with the animal's drinking water. Individual stool samples of each group were cultured in LB media each day and analyzed for the presence/absence of gut flora. The gastrointestinal tract flora of mice before antibiotic treatment was considered as a baseline control for the normal gut flora (present in all samples).

N[C@@H](Cc1cc(I)c(Oc2ccc(O)c(I)c2)c(I)c1)C(=O)O [T3]
Stool IAP activity, higher compared to euthyroid animals (IAP; Week 32, hyperthyroid animals): approximately 7 fold
Stool IAP activity, higher compared to hypothyroid animals (IAP; Week 32, hyperthyroid animals): ~15 fold
IAP activity in stools (IAP; Weeks 12-32, daily i.p. T3): increased IAP activity

CC1(C)S[C@@H]2[C@H](NC(=O)[C@H](N)c3ccccc3)C(=O)N2[C@H]1C(=O)O [Ampicillin alone, ampicillin]
Bacteria in the stool (gut microbiota [1]; Day 1): Present
Bacteria in the stool (gut microbiota [1]; Day 2): Absent
Bacteria in the stool (gut microbiota [1]; Day 3): Absent
Bacteria in the stool (gut microbiota [1]; Day 4): Absent
Bacteria in the stool (gut microbiota [1]; Day 5): Absent
Bacteria in the stool (gut microbiota [1]; Day 6): Absent
Bacteria in the stool (gut microbiota [1]; Day 7): Absent
Bacteria in the stool (gut microbiota [1]; Day 8): Absent
Bacteria in the stool (gut microbiota [1]; Day 9): Absent
Bacteria in the stool (gut microbiota [1]; Day 10): Absent
Bacteria in the stool (gut microbiota [1]; Day 11): Absent
Bacteria in the stool (gut microbiota [1]; Day 12): Absent
Bacteria in the stool (gut microbiota [1]; Day 13): Absent
Bacteria in the stool (gut microbiota [1]; Day 14): Absent
Bacteria in the stool (gut microbiota [1]; Day 15): Absent
Bacteria in the stool (gut microbiota [1]; Day 16): Absent
Bacteria in the stool (gut microbiota [1]; Day 17): Absent
Bacteria in the stool (gut microbiota [1]; Day 18): Absent
Bacteria in the stool (gut microbiota [1]; Day 19): Absent
Bacteria in the stool (gut microbiota [1]; Day 20): Absent
Bacteria in the stool (gut microbiota [1]; Day 21): Absent
Bacteria in the stool (gut microbiota [1]; Day 22): Absent
Bacteria in the stool (gut microbiota [1]; Day 23): Absent
Bacteria in the stool (gut microbiota [1]; Day 24): Present
Day at which stools showed normal gut flora (gut microbiota [1]; ampicillin for 10 days): 24 days
No bacterial growth in stools until (gut microbiota [1]; ampicillin for 10 days): 23 days

[H]/N=C(/N)N[C@H]1[C@H](O)[C@@H](O)[C@H](O[C@@H]2O[C@@H](C)[C@](O)(C=O)[C@H]2O[C@@H]2O[C@@H](CO)[C@H](O)[C@@H](O)[C@@H]2NC)[C@@H](N/C(N)=N\[H])[C@@H]1O [Streptomycin alone, streptomycin]
Time to elimination of aerobic Gram-negative organisms in all animals [2]: ≤ 24 h
Bacterial growth in stools (gut microbiota [3]; 24 hours after discontinuation of streptomycin): no bacterial growth
Bacteria in the stool (gut microbiota [3]; Day 1): Absent
Bacteria in the stool (gut microbiota [3]; Day 2): Absent
Bacteria in the stool (gut microbiota [3]; Day 3): Absent
Bacteria in the stool (gut microbiota [3]; Day 4): Absent
Bacteria in the stool (gut microbiota [3]; Day 5): Absent
Bacteria in the stool (gut microbiota [3]; Day 6): Absent
Bacteria in the stool (gut microbiota [3]; Day 7): Absent
Bacteria in the stool (gut microbiota [3]; Day 8): Absent
Bacteria in the stool (gut microbiota [3]; Day 9): Absent
Bacteria in the stool (gut microbiota [3]; Day 10): Present
Time stools remained sterile (gut microbiota [3]; after streptomycin for 24 hours): up to nine
Day at which stools showed signs of the normal gastrointestinal tract flora (gut microbiota [3]; streptomycin for 24 hours): 10 days

Reference: patent US20170252327A1, “Methods of Modulating Gastrointestinal Tract Flora Levels with Alkaline Phosphatase” (priority 2008, published 2017)
